Assay results reported in patent US5968978A, “Biphenylsulfonylcyanamides, process for their preparation, and their use as medicament” (Hoechst Marion Roussel Deutschland, priority 1997, dated 1999).

What follows are compounds tested on Na+-dependent Cl-/HCO3- exchanger (NCBE) (assay: Inhibition of the Na+-dependent Cl-/HCO3- exchanger (NCBE) in human endothelial cells (FLIPR, BCECF pHi recovery)). Conditions: inhibitor concentration of 10 μM; human endothelial cells (ECV-304); 50 μM HOE 642 present.
Assay type: cell-based
Procedure: Inhibition of the Na^+ -dependent Cl^- /HCO3^- exchanger (NCBE) in human endothelial cells
Human endothelial cells (ECV-304) were detached from culture flasks with the aid of trypsin/EDTA buffer (0.05/0.02% in phosphate buffer) and, after centrifugation (100 g, 5 min), taken up in a buffered salt solution (mmol/l: 115 NaCl, 20 NH4 Cl, 5 KCl, 1 CaCl2, 1 MgSO4, 20 N-(2-hydroxyethyl)-piperazine-N'-2-ethanesulfonic acid (HEPES), 5 glucose and 1 g/l of bovine serumalbumin; pH 7.4). This cell suspension was incubated at 37° C. for 20 min with 5 μM BCECF acetoxymethyl ester. The cells were then washed and resuspended in a sodium- and bicarbonate-free buffer solution (mmol/l: 5 HEPES, 133.8 choline chloride, 4.7 KCl, 1.25 MgCl2, 0.97 K2 HPO4, 0.23 KH2 PO4, 5 glucose; pH 7.4).
The subsequent fluorescence measurement in the FLIPR (Fluorescent Imaging Plate Reader), 100 μl of this cell suspension in each case containing 20000 cells were added by pipette per well of a 96-well microtiter plate and this microtiter plate was centrifuged (100 g, 5 min).
In the FLIPR, 100 μl of buffer solution in each case were then removed from a further prepared microtiter plate and added by pipette to each of the 96 wells of the measuring plate. In this case, for a 100% control, i.e. a recovery of the intracellular pH (pHi) by means of the NCBE, a bicarbonate- and sodium-containing buffer solution (mmol/l: 5 HEPES, 93.8 NaCl, 40 NaHCO3, 4.7 KCl, 1.25 CaCl2, 1.25 MgCl2, 0.97 Na2 HPO4, 0.23 NaH2 PO4, 5 glucose; pH 7.4) which contained 50 μM HOE 642 was used. For a 0% control, i.e. no pHi recovery at all, a bicarbonate-free, sodium-containing buffer solution (mmol/l: 5 HEPES, 133.8 NaCl, 4.7 KCl, 1.25 CaCl2, 1.25 MgCl2, 0.97 Na2 HPO4, 0.23 NaH2 PO4, 5 glucose; pH 7.4) to which 50 μM HOE 642 were also added was employed. The compounds of the formula (I) according to the invention were added in various concentrations of the sodium- and bicarbonate-containing solution.
After addition of the buffer solutions to the dye-loaded acidified cells situated in the measuring plate,the increase in the fluorescence intensity which corresponded to an increase in the pHi was determined in each well of the microtiter plate. The kinetics were in this case recorded at 35° C. over a period of 2 minutes.
The increase in the fluorescence intensities for different concentrations of the compounds according to the invention was related to the two controls and from this the inhibitory action of the substances was determined.

| SMILES | Residual activity of the NCBE |
| --- | --- |
| N#CNS(=O)(=O)c1ccccc1-c1ccc(C=C2CCCCC2)cc1 [Example 1, 4'-Cyclohexylidenemethylbiphenyl-2-sulfonylcyanamide] | 68.4% |
| N#CNS(=O)(=O)c1ccccc1-c1ccc(CC2CCCCC2)cc1 [Example 2, 4'-Cyclohexylmethylbiphenyl-2-sulfonylcyanamide] | 51.6% |
| N#CNS(=O)(=O)c1ccccc1-c1ccc(C=C2CCCC2)cc1 [Example 3, 4'-Cyclopentylidenemethylbiphenyl-2-sulfonylcyanamide] | 29.4% |
| N#CNS(=O)(=O)c1ccccc1-c1ccc(C=C2CCCCCC2)cc1 [Example 4, 4'-Cycloheptylidenemethylbiphenyl-2-sulfonylcyanamide] | 30.5% |
| N#CNS(=O)(=O)c1ccccc1-c1ccc(/C=C\c2ccccc2)cc1 [Example 5, cis-4'-Styrylbiphenyl-2-sulfonylcyanamide] | 21.2% |
| N#CNS(=O)(=O)c1ccccc1-c1ccc(/C=C/c2ccccc2)cc1 [Example 6, trans-4'-Styrylbiphenyl-2-sulfonylcyanamide] | 19.3% |
| N#CNS(=O)(=O)c1ccccc1-c1ccc(CCc2ccccc2)cc1 [Example 7, 4'-Phenethylbiphenyl-2-sulfonylcyanamide] | 64.2% |
| N#CNS(=O)(=O)c1ccccc1-c1ccc(/C=C\C2CCCCC2)cc1 [Example 8, cis-4'-(2-Cyclohexylvinyl)biphenyl-2-sulfonylcyanamide] | 13.4% |
| N#CNS(=O)(=O)c1ccccc1-c1ccc(/C=C/C2CCCCC2)cc1 [Example 9, trans-4'-(2-Cyclohexylvinyl)biphenyl-2-sulfonylcyanamide] | 12.8% |
| N#CNS(=O)(=O)c1ccccc1-c1ccc(CCC2CCCCC2)cc1 [Example 10, 4'-(2-Cyclohexylethyl)biphenyl-2-sulfonylcyanamide] | 24.3% |
